Patent publication US7276494B2, “Photosensitisers” (Photopharmica Limited, priority 2000, dated 2007)

Experiments:
LSBD1 tumour = test: PDT-induced LSBD1 tumour growth delay in BDIX rats; assay type: in vivo; settings: 400 J
Method: Data are shown in two animals models, the rat and the mouse. […] Growth delay measures the additional time taken for a treated tumour to grow to a given size, compared with an untreated tumour. Zero growth delay signifies no effect and growth delays of 5 days or longer imply substantial PDT activity.
(1) PDT-Induced LSBD1 Tumour Growth Delay in BDIX Rats
Tumour growth delay is calculated as the number of days for treated tumour to reach a mean diameter of 15 mm minus the number of days for a control tumour to reach a mean diameter of 15 mm. Data for various compounds are shown in Table 2, which also indicates the times (drug-light interval) at which effects occurred.

[1] = system: RIF-1 (murine fibrosarcoma) cells; test: Phototoxicity towards cells in culture (photocytotoxic activity in killing RIF-1 cells); assay type: cell-based; settings: concentration causing 50% cell death in two hours of illumination
From the text: [Phot]=Zinc Phthalocyanine; n=4; LD50 is the concentration of drug needed to cause 50% cell death in two hours of illumination

RIF-1 tumour cells = test: In vitro photodynamic activity, RIF-1 tumour cells, cell kill by MTT assay after 665 nm laser radiation; assay type: cell-based, murine; settings: for Light: LD50 (average) / Dark: cell kill: RIF-1 tumour cells, MTT assay; for Light: LD50 (average): 665 nm laser radiation for a fixed time; for Dark: cell kill: no light
Method: In vitro photodynamic activity for zinc phthalocyanine-2-(N-2-carboxyethyl)sulphonamide compared with Zinc phthalocyanine tetrasulphonic acid. The sensitiser was tested by incubation with RIF-1 tumour cells at various dose rates, and measuring the cell kill by MTT assay after exposure to 665 nm laser radiation for a fixed time. The results were compared with zinc phthalocyanine tetrasulphonic acid as a control, and were expressed as the LD50 value for the sensitisers.

red blood cells = settings: J. Photochem. Photobiol B: Biology., 45 (1998) 28-35; cited from earlier work
[2] = drug-light interval 4 h, 10 mg/kg, 680 nm phthalocyanines / 630 nm PHP
[3] = drug-light interval 24 h, 10 mg/kg, 680 nm phthalocyanines / 630 nm PHP
[4] = drug-light interval 48 h, 10 mg/kg, 680 nm phthalocyanines / 630 nm PHP
[5] = drug-light interval 24 h, 5 mg/kg, 680 nm
[6] = drug-light interval 48 h, 5 mg/kg, 680 nm

## tetrasulphonylamino butyric acid zinc (II) phthalocyanine [TSZnPc-aminobutyric acid]
LSBD1 tumour; [2]
  Tumour growth delay: 4.3 ± 1.44 days
LSBD1 tumour; [3]
  Tumour growth delay: 7.83 ± 3.33 days
LSBD1 tumour; [4]
  Tumour growth delay: 1.67 ± 1.53 days
[1]
  2h LD50 (mean ± SD, n 3): 90 ± 30 µM

## zinc phthalocyanine-2-(N-2-carboxyethyl)sulphonamide
RIF-1 tumour cells
  Light: LD50 (average): 0.2 µM
  Dark: cell kill: no cell kill detectable
RIF-1 tumour cells; ratio of light LD50 values, RIF-1 cells
  times more PDT active than the tetrasulphonic acid (in vitro): at least 50 times

## zinc phthalocyanine tetrasulphonic acid [reference compound]
RIF-1 tumour cells
  Light: LD50 (average): > 10 µM
  Dark: cell kill: no cell kill detectable

## Tetrasulphonylaminoglycine zinc (II) phthalocyanine [TSZnPc-glycine]
Red blood cells
  ability to effect haemolysis of red blood cells: relatively poor
LSBD1 tumour; drug-light interval 4 h, 5 mg/kg, 680 nm
  Tumour growth delay: 8.5 ± 3.5 days
LSBD1 tumour; [5]
  Tumour growth delay: 4.7 ± 0.75 days
LSBD1 tumour; [6]
  Tumour growth delay: 4.5 days
[1]
  2h LD50 (mean ± SD, n 3): 142 ± 37 µM

## tetrasulphonylamino valeric acid zinc (II) phthalocyanine [TSZnPc-aminovaleric acid]
[1]
  2h LD50 (mean ± SD, n 3): 125 ± 13 µM

## tetrasulphonylamino caproic acid zinc (II) phthalocyanine [TSZnPc-aminocaproic acid]
[1]
  2h LD50 (mean ± SD, n 3): 104 ± 14 µM

## tetrasulphonylamino-α-alanine zinc (II) phthalocyanine [TSZnPc-α-alanine]
LSBD1 tumour; [2]
  Tumour growth delay: 4.33 ± 0.83 days
LSBD1 tumour; [3]
  Tumour growth delay: 6.67 ± 1.09 days
LSBD1 tumour; [4]
  Tumour growth delay: 3.33 ± 0.73 days
[1]
  2h LD50 (mean ± SD, n 3): 109 ± 39 µM

## tetrasulphonylamino β-alanine zinc (II) phthalocyanine [TSZnPc-β-alanine]
LSBD1 tumour; drug-light interval 2 h, 10 mg/kg, 680 nm
  Tumour growth delay: 6 ± 0.62 days
LSBD1 tumour; [2]
  Tumour growth delay: 10 ± 2.62 days
LSBD1 tumour; drug-light interval 6 h, 10 mg/kg, 680 nm
  Tumour growth delay: 5.25 ± 1.59 days
LSBD1 tumour; [5]
  Tumour growth delay: 2 days
LSBD1 tumour; [6]
  Tumour growth delay: 2 days
[1]
  2h LD50 (mean ± SD, n 3): 109 ± 31 µM
